Read-outs that look alike come from different tables or passages of the source.
Experiments:
[1] = system: mtOXPHOS transcripts; format: cell-based, mouse; settings: Conc 20 μM; for mitoOX (composite Z-score): normalized score vs mock-treated (DMSO) wells
[2] = system: nuOXPHOS transcripts; format: cell-based, mouse; settings: Conc 20 μM; for nucOX (composite Z-score): normalized score vs mock-treated (DMSO) wells
[3] = system: reactive oxygen species; format: cell-based, mouse; settings: Conc 20 μM; for ROS (composite Z-score): normalized score vs mock-treated (DMSO) wells
[4] = system: OXPHOS gene expression; format: cell-based, mouse; settings: Conc 20 μM; for GE-HTS (composite Z-score): normalized score vs mock-treated (DMSO) wells
[5] = system: cellular dehydrogenase activity; settings: Conc 20 μM; for MTT (composite Z-score): normalized score vs mock-treated (DMSO) wells
[6] = system: C2C12 myotubes; settings: Conc 20 μM; for Viability (composite Z-score): normalized score vs mock-treated (DMSO) wells
[7] = system: cytochrome c; format: cell-based, mouse; settings: Conc 20 μM; for cyt c (composite Z-score): normalized score vs mock-treated (DMSO) wells
[8] = system: mitochondrial membrane potential; format: cell-based, mouse; settings: Conc 20 μM; for ΔΨm (composite Z-score): normalized score vs mock-treated (DMSO) wells
[9] = normalized composite Z-score vs mock-treated (DMSO) wells
[10] = composite Z-score vs DMSO wells
[11] = composite Z-score vs mock-treated (DMSO) wells

With CC(=O)Oc1cc2c(c(C)c1OC(C)=O)CC=C1[C@@]2(C)CC[C@@]2(C)C3C[C@](C)(C(=O)O)CC[C@]3(C)CC[C@]12C (stereo partly drawn) [dihydrocelastryl diacetate] the “mitoOX (composite Z-score)” value [1] was −3.815, the “nucOX (composite Z-score)” value [2] was 0.241 and the “ROS (composite Z-score)” value [3] was −3.182. The “GE-HTS (composite Z-score)” value [4] was −1.199, the “MTT (composite Z-score)” value [5] was −4.098 and the “Viability (composite Z-score)” value [6] was −4.472. For the same compound, the “cyt c (composite Z-score)” value [7] was −5.617 and the “ΔΨm (composite Z-score)” value [8] was −3.309.

Work on CC(=O)O[C@@H]1CC2C(C)(C)C(=O)CC[C@]2(C)C2CC[C@]3(C)C(=CC(=O)O[C@H]3c3ccoc3)[C@@]21C (stereo partly drawn) [dihydrodeoxygedunin] yielded a mitoOX [1, 9] of −0.631, a nucOX [2, 9] of −1.073 and an ROS [3, 9] of 1.030. The GE-HTS [4, 9] was −1.009, the MTT [5, 9] was −0.637 and the Viability [6, 9] was −0.004. The cyt c [7, 9] was 0.751 and the ΔΨm [8, 9] was 0.443.

CN1C[C@H](C(=O)N[C@]2(C)O[C@@]3(O)[C@@H]4CCCN4C(=O)[C@H](Cc4ccccc4)N3C2=O)C[C@@H]2c3cccc4[nH]cc(c34)C[C@H]21 [dihydroergotamine] showed a mitoOX [1, 10] of 0.143, a nucOX [2, 10] of −0.021 and an ROS [3, 10] of 1.157. For the same compound, the GE-HTS [4, 10] was 0.008, the MTT [5, 10] was −0.604 and the Viability [6, 10] was 0.293. For the same compound, the cyt c [7, 10] was −0.494 and the ΔΨm [8, 10] was 0.372.

COC(=O)C[C@H]1C(C)(C)[C@@H](OC(C)=O)[C@@H]2CC3C4CC(=O)O[C@@H](c5ccoc5)[C@]4(C)CCC3[C@@]1(C)C2=O (stereo partly drawn) [dihydrofissinolide] gave a mitoOX [1, 11] of 0.041, a nucOX [2, 11] of −0.350 and an ROS [3, 11] of 1.029. The GE-HTS [4, 11] was −0.253, the MTT [5, 11] was −1.189 and the Viability [6, 11] was 0.139. For the same compound, the cyt c [7, 11] was −0.122 and the ΔΨm [8, 11] was 0.196.

COC(=O)[C@@H]1OC(=O)C2OC23[C@@]1(C)CCC1[C@@]2(C)CCC(=O)C(C)(C)C2C[C@@H](OC(C)=O)[C@]13C (stereo partly drawn) [dihydrogedunic acid, methyl ester] gave a mitoOX [1, 11] of 0.438, a nucOX [2, 11] of 0.141 and an ROS [3, 11] of 0.411. It also gave a GE-HTS [4, 11] of 0.244, an MTT [5, 11] of −1.062 and a Viability [6, 11] of 0.103. It also gave a cyt c [7, 11] of −0.443 and a ΔΨm [8, 11] of −0.320.

CC(=O)O[C@@H]1C[C@H]2C(C)(C)C(=O)CC[C@]2(C)[C@H]2CC[C@@]3(C)[C@H](c4ccoc4)OC(=O)[C@H]4O[C@]43[C@@]21C [dihydrogedunin] was tested, and the mitoOX [1, 11] was 0.323, the nucOX [2, 11] was 0.613 and the ROS [3, 11] was −0.690. The GE-HTS [4, 11] was 0.575, the MTT [5, 11] was −0.017 and the Viability [6, 11] was 0.637. It also gave a cyt c [7, 11] of 0.460 and a ΔΨm [8, 11] of 1.079.

For COC(=O)[C@@H]1OC(=O)[C@H]2O[C@@]23[C@@]1(C)CCC1[C@@]2(C)CCC(=O)C(C)(C)C2C[C@@H](OC(C)=O)[C@]13C (stereo partly drawn) [dihydrogeduninic acid, methyl ester], the “mitoOX (composite Z-score)” value [1] was 0.289, the “nucOX (composite Z-score)” value [2] was 0.881 and the “ROS (composite Z-score)” value [3] was 0.820. For the same compound, the “GE-HTS (composite Z-score)” value [4] was 0.739, the “MTT (composite Z-score)” value [5] was −1.004 and the “Viability (composite Z-score)” value [6] was 0.488. The “cyt c (composite Z-score)” value [7] was 0.117 and the “ΔΨm (composite Z-score)” value [8] was −0.571.

Compound CCCCCC1C(=O)CCC1CC(=O)OC (stereo not drawn) [dihydrojasmonic acid, methyl ester] has a mitoOX ([1]; composite Z-score vs DMSO) of 1.068, a nucOX ([2]; composite Z-score vs DMSO) of 0.831 and an ROS ([3]; composite Z-score vs DMSO) of −0.386. It also gave a GE-HTS ([4]; composite Z-score vs DMSO) of 0.948, an MTT ([5]; composite Z-score vs DMSO) of −0.452 and a Viability ([6]; composite Z-score vs DMSO) of 0.971. It also gave a cyt c ([7]; composite Z-score vs DMSO) of −0.281 and a ΔΨm ([8]; composite Z-score vs DMSO) of −0.204.

Compound CCCCCC1C(=O)CCC1CC(=O)O (stereo not drawn) [dihydrojasmonic acid] has a mitoOX [1, 9] of −0.505, a nucOX [2, 9] of −0.168 and an ROS [3, 9] of 0.827. It also gave a GE-HTS [4, 9] of −0.313, an MTT [5, 9] of −0.149 and a Viability [6, 9] of −1.223. For the same compound, the cyt c [7, 9] was −0.847 and the ΔΨm [8, 9] was −0.294.

In the case of COc1c(CC(=O)c2cc3c(cc2O)OC(C)(C)C(O)C3)ccc2c1C=CC(C)(C)O2 (stereo not drawn) [dihydromunduletone], the mitoOX [1, 9] is reported as −1.248, the nucOX [2, 9] is reported as −1.276 and the ROS [3, 9] is reported as −0.049. It also gave a GE-HTS [4, 9] of −1.331, an MTT [5, 9] of −0.805 and a Viability [6, 9] of 1.580. It also gave a cyt c [7, 9] of −0.146 and a ΔΨm [8, 9] of 2.250.

Cc1cc(=O)c2c(O)c3c(cc2o1)OCC(C)CC3 (stereo not drawn) [dihydroptaeroxylin] was tested, and the mitoOX [1, 9] was −0.787, the nucOX [2, 9] was −0.410 and the ROS [3, 9] was 0.151. The GE-HTS [4, 9] was −0.581, the MTT [5, 9] was −0.526 and the Viability [6, 9] was 0.605. For the same compound, the cyt c [7, 9] was 0.403 and the ΔΨm [8, 9] was −0.192.

For COc1ccc(-c2c(O)c3c(OC)c4c(cc3oc2=O)OC(C)(C)CC4)cc1 [dihydrorobustic acid, reference compound], the mitoOX ([1]; composite Z-score vs DMSO) was −0.701, the nucOX ([2]; composite Z-score vs DMSO) was −0.849 and the ROS ([3]; composite Z-score vs DMSO) was −0.115. For the same compound, the GE-HTS ([4]; composite Z-score vs DMSO) was −0.836, the MTT ([5]; composite Z-score vs DMSO) was −0.780 and the Viability ([6]; composite Z-score vs DMSO) was −0.721. The cyt c ([7]; composite Z-score vs DMSO) was 0.757 and the ΔΨm ([8]; composite Z-score vs DMSO) was 0.000.

From patent publication US20090143279A1 (priority 2007, published 2009)
